A short description of this series: in vitro. Conditions: human, hela cells, % viability.

Turning to `O=C(NCCc1cccs1)N1CCC2(CC1)OCCc1c2[nH]c2ccccc12` [CBK047129], the viability at 28.5 h, 10 µM is 85.4%.
Same read-out and setting: as for `CCn1c(C2CCN(C(=O)c3cc(C(F)(F)F)n[nH]3)CC2)nn(C)c1=O` [CBK307184], the figure is 88.9%.
On to `COc1cccc(CC(=O)N2CCCC(c3cc4ncccc4[nH]3)C2)c1` (centres unmarked) [CBK283426], for which the viability at 28.5 h, 10 µM was determined as 94.1%.
On the same count and under the same terms, as for `Cc1nc(-c2cccnc2)[nH]c(=O)c1CC(=O)N(C)CC1CCCCC1` [CBK305785], the figure is 91.4%.
In the case of `COc1ccc(-c2ccccc2NC(=O)c2cccc(CN3CCCC3=O)c2)cc1` [CBK285865], the viability at 28.5 h, 10 µM is 91.4%.
Same read-out and setting: for `Cc1cc2cc(C(F)(F)F)nc-2n(CC(=O)NC2CC2)c1` [CBK282888] the value was 106%; for `CC1CCN(CC(O)c2ccc3c(c2)CCN3C(=O)C2CC2)CC1` (centres unmarked) [CBK282927], 102%.
Still for that read-out and setting: as for `CSCCC(=O)NCc1ccc(-c2csnn2)cc1` [CBK149304], the figure is 83.2%.
For the compound `O=C(CN(c1cc(Cl)ccc1Cl)S(=O)(=O)c1ccccc1)Nc1cccnc1` [CBK268708], the viability at 28.5 h, 10 µM stood at 59.3%.
Same read-out and setting: for `O=C(c1ccccc1F)N1CCC(c2n[nH]c3ncccc23)CC1` [CBK284903] the value was 91.7%.
On the same count and under the same terms, as for `Cn1c(=O)[nH]c(=O)c2c(-c3ccccc3)ccnc21` [CBK288136], the figure is 72%; as for `COc1ccc(Cn2nc(NS(=O)(=O)c3cn(C)cn3)c3ccccc32)cc1` [CBK048143], 87.7%; as for `O=C(c1cnc(-c2ccncc2)s1)N(CC(F)(F)F)C1CCC1` [CBK304119], 84.1%.
In the case of `O=S(=O)(NCc1ccccc1)c1ccc(Cl)cc1` [CBK086159], the viability at 28.5 h, 10 µM was 86.7%.
The same measure, in the same setting: for `O=C(O)CC1S/C(=N/N=C2/C(=O)Nc3ccccc32)N(c2ccc(O)cc2)C1=O` (centres unmarked) [CBK263723] the value was 93%.
Consider `CCn1cc(CN2C3CCC2CC(O)(c2ccccc2F)C3)cn1` (centres unmarked) [CBK282662], for which the viability at 28.5 h, 10 µM is 86.5%.
Take `CC(C)CNC(=O)C1CCN(C(=O)c2cccc(F)c2)CC1` [CBK304338]: the viability at 28.5 h, 10 µM was determined as 112%.
As to `O=C(O)c1ccc(CNC(=S)NCC2CCCO2)cc1` (centres unmarked) [CBK266908], the viability at 28.5 h, 10 µM was 98.2%.
Consider `O=C([C@@H]1C[C@@H](O)[C@H](O)[C@@H]2NC(=S)N(c3ccc4c(c3)OCO4)[C@@H]21)N1CCCCC1` [CBK288945], for which the viability at 28.5 h, 10 µM stood at 87.3%.
Same read-out and setting: for `O=C1/C(=C/c2ccc(OCc3cccc([N+](=O)[O-])c3)cc2)SC(=S)N1CCc1ccccc1` [CBK264641] the value was 92.6%.
Still for that read-out and setting: for `O=C(C1=C(O)C(=O)N(CCCn2ccnc2)C1c1ccc(Br)cc1)c1ccc2c(c1)OCCO2` (centres unmarked) [CBK266081] the value was 104%; for `COc1ccc(N2CCN(c3cc(-c4cccc(NC(C)=O)c4)ncn3)CC2)cc1OC` [CBK091029], 96.4%; for `COc1ccc([C@@]23CC[C@@H](NC(=O)c4ccc(-c5ccccc5)cc4)CC2N(C)CC3)cc1OC` (some centres unmarked) [CBK074973T], 89.6%.
On the same count and under the same terms, as for `CCNC(Cc1ccc2ccccc2c1)C(=O)OC` (centres unmarked) [CBK071702], the figure is 109%.
Turning to `O=[N+]([O-])c1ccccc1/C=C/CN1CCN(CCO)CC1` [CBK261863], the viability at 28.5 h, 10 µM was found to be 85.8%.
`CN1C[C@H](CNC(=O)Nc2ccc(F)c(F)c2)[C@@H](c2ccc(Cl)c(Cl)c2)C1` [CBK076770]: the viability at 28.5 h, 10 µM was determined as 95.7%.
With `Nc1cc2c(cc1Cl)C(=O)NC2=O` [CBK028783], the viability at 28.5 h, 10 µM was 101%.
With `CCCCOc1nccnc1-c1ccsc1` [CBK106778], the viability at 28.5 h, 10 µM amounted to 101%.
The same measure, in the same setting: for `Cc1ccc(S(=O)(=O)Cc2ccc(C(=O)Nc3cccc(-c4cnc5ccccc5n4)c3)cc2)cc1` [CBK268589] the value was 89.3%.
Same read-out and setting: as for `CC1(C)CC(NC(=O)c2cc([N+](=O)[O-])ccc2Cl)CC(C)(C)N1` [CBK263948], the figure is 93.7%.
As for `COC(C)CN(C)C(=O)c1cc2cc(C)ccc2nc1C` (centres unmarked) [CBK282036], the viability at 28.5 h, 10 µM was 86.5%.
Same read-out and setting: as for `O=S(=O)(c1ccc(Cl)cc1)N1CCN(c2cc(-c3ccco3)ncn2)CC1` [CBK091161], the figure is 111%; as for `Cc1nn(Cc2cccc3ccccc23)c(C)c1NC(=O)c1cccnc1` [CBK269946], 90.6%; as for `COc1ccc(C(=O)N[C@H]2C[C@@H]3C(=O)N[C@H]4CCN(C(=O)C5CCC5)[C@@H]4C(=O)N3C2)cc1` [CBK289266], 89.3%.
As for `COCCNc1cccc(Cn2c(=O)n(C)c3c2c(=O)nc(OC)n3C)c1` [CBK022052], the viability at 28.5 h, 10 µM was 84.3%.
For `Cc1ccc(C2=NN(C(=N)SC3CC(=O)N(c4ccc(C(=O)O)cc4)C3=O)C(c3ccc(Cl)cc3)C2)cc1` (centres unmarked) [CBK262472], the viability at 28.5 h, 10 µM came out at 91.5%.
Same read-out and setting: as for `CCOC(=O)c1cccc(-c2ccc(OC(F)(F)F)cc2)n1` [CBK149251], the figure is 96.6%; as for `CN(C)CC1CN(C(=O)Cc2ccccc2F)Cc2ccccc2O1` (centres unmarked) [CBK285327], 90.4%.
As for `CC(C)CNC(=O)c1cc([C@H]2CC[C@H](CNC(=O)Cn3cccn3)CC2)nc2ccccc12` [CBK285860], the viability at 28.5 h, 10 µM came to 102%.
Take `CCN(CCc1nc2cc(OC)ccc2[nH]1)C(=O)c1ccc(=O)n(C)c1` [CBK307312]: the viability at 28.5 h, 10 µM was 77%.
The same measure, in the same setting: as for `Cc1ccccc1Nc1nc(N)nc(CN2CCOCC2)n1` [CBK305646], the figure is 87.5%.
With `CCCNC(=O)Cc1sccc1NS(=O)(=O)c1ccc(C)cc1` [CBK038118], the viability at 28.5 h, 10 µM was determined as 83%.
On the same count and under the same terms, as for `O=C(N/N=C/c1ccc(C(=O)O)cc1)C(=O)Nc1cccc(Br)c1` [CBK262185], the figure is 88.6%; as for `COc1cccc(C(NC(=O)C2CCN(Cc3cccs3)CC2)c2cnccn2)c1` (centres unmarked) [CBK148572], 106%; as for `COc1ccc(NC(=S)NC(=O)CN2C(=O)c3ccccc3C2=O)c([N+](=O)[O-])c1` [CBK267594], 114%.
The same measure, in the same setting: for `O=C(O)CCn1cc(CN2CCOc3ccccc3C2)cn1` [CBK306507] the value was 101%.
The same measure, in the same setting: as for `C1=Nn2c(nnc2-c2ccncc2)SC(c2ccccc2)=C1` [CBK288535], the figure is 101%; as for `Cc1ccc(-c2nc3ncccc3o2)cc1NC(=O)c1ccc(-c2cccc([N+](=O)[O-])c2)o1` [CBK268548], 90.7%.
In the case of `COc1ccc(C(C)NC(=O)c2cccc(-c3ccc4c(c3)COC3(CCN(C(=O)OC(C)(C)C)CC3)O4)c2)cc1` (centres unmarked) [CBK107833], the viability at 28.5 h, 10 µM (bulk resorufin, single well) worked out at 100%.
Consider `Cc1[nH]c(=O)[nH]c(=O)c1CCC(=O)OCc1nccn1Cc1ccccc1` [CBK297939], for which the viability at 28.5 h, 10 µM is 82.1%.
On the same count and under the same terms, as for `O=C(Nc1ccc([C@@H](O)[C@H]2COCC(=O)N2Cc2ccc(F)cc2)cc1)c1ccccc1` [CBK289061], the figure is 86.1%.
Still for that read-out and setting: as for `CCC(=O)Nc1ccc(O)cc1C(=O)O` [CBK126818], the figure is 92.8%; as for `O=C1c2ccc(Oc3ccc4c(c3)C(=O)N(c3ccccn3)C4=O)cc2C(=O)N1c1ccccn1` [CBK261202], 99.3%.
On to `Cc1ccc(N2CC(c3nnc(N)o3)CC2=O)cc1` (centres unmarked) [CBK288061], for which the viability at 28.5 h, 10 µM came out at 93.8%.
Consider `COCC(=O)N1CCc2sccc2C1c1ccc(NCc2cccc(OC)c2)cc1` (centres unmarked) [CBK286454], for which the viability at 28.5 h, 10 µM is 92.9%.
The same measure, in the same setting: for `O=C(CC1NC(=O)NC1=O)Nc1ccccc1` (centres unmarked) [CBK267331] the value was 90.4%; for `Cc1cc(NC(=O)CS(=O)(=O)Cc2cccc(C(F)(F)F)c2)no1` [CBK304520], 99.3%; for `O=C(NC(c1ccccc1)c1ccsc1)C1CCN(C/C=C/c2ccccc2)CC1` (centres unmarked) [CBK148449], 89.4%.
Consider `COCCN1CCn2c(nc3cc(NC(=O)c4cccc([N+](=O)[O-])c4)ccc32)C1` [CBK267965], for which the viability at 28.5 h, 10 µM came to 98.9%.
In the case of `O=C(O)CC1(CC(=O)Nc2ccc(N3CCCC3=O)c(Cl)c2)CCCCC1` [CBK296664], the viability at 28.5 h, 10 µM was 96.3%.
As for `O=C(NCc1ccco1)c1ccc(-c2ccoc2)nc1` [CBK156279], the viability at 28.5 h, 10 µM is 105%.
The same measure, in the same setting: as for `O=C(Cn1ccc(=O)[nH]c1=O)NCc1cccnc1OCC(F)(F)F` [CBK304565], the figure is 90.5%; as for `Cc1cc(C(=O)NCCc2ccc(S(N)(=O)=O)cc2)ccc1[N+](=O)[O-]` [CBK264390], 105%; as for `Cc1ccc(OCC(=O)N2CCN(S(=O)(=O)c3ccc4ccccc4c3)CC2)cc1` [CBK264200], 115%.
Same read-out and setting: as for `Oc1ccc(Oc2ccc(Oc3ccc(O)cc3)cc2)cc1` [CBK033968], the figure is 107%.
As for `COc1cc(C(=O)N2CCC3(CC2)CC(=O)c2cc(-c4cccnc4)ccc2O3)cc(OC)c1C` [CBK169606], the viability at 28.5 h, 10 µM is 112%.
Same read-out and setting: for `O=C(NC1CC1)[C@@H]1C=CCN1C(=O)Nc1ccccc1C(F)(F)F` [CBK284276] the value was 98.1%; for `CC(NS(=O)(=O)c1ccccc1)C(=O)Nc1ccc(S(N)(=O)=O)cc1` (centres unmarked) [CBK266929], 110%.
Turning to `Cc1ccccc1NC(=O)c1cnc2n(c1=O)CCS2` [CBK287374], the viability at 28.5 h, 10 µM turned out to be 110%.
The same measure, in the same setting: as for `Cc1nn(C)cc1C(=O)N1CCC2(C/C=C/CCOc3ccccc3C(=O)NCCCNC2=O)CC1` [CBK292154], the figure is 110%; as for `CN(CCN(C)C(=O)c1cc2sccc2[nH]1)CC(F)F` [CBK306014], 103%; as for `OC1CCN(c2ccc(-c3ccccc3)nn2)CC1` [CBK021753], 83.9%.
Regarding `NNC(=O)c1cc(O)n[nH]1` [CBK262669], the viability at 28.5 h, 10 µM amounted to 106%.
Take `COc1cccc(C2SCC(=O)Nc3[nH]nc(C)c32)c1` (centres unmarked) [CBK287981]: the viability at 28.5 h, 10 µM amounted to 78.2%.
The same measure, in the same setting: for `O=C(O)c1cccc(Sc2nc3cc(Cl)c(Cl)cc3nc2N2CCCC2)c1` [CBK093588] the value was 118%; for `O=C(O)c1cc(-c2c[nH]c3ccc(Cl)cc23)[nH]n1` [CBK287257], 95%; for `O=c1cc(CO)oc(C(Nc2ccccn2)c2ccsc2)c1O` (centres unmarked) [CBK296956], 106%.

Source of the values: paper PMC12040169 (PLOS Biology, 2025).
